# Experimental data as given in ChEMBL document CHEMBL4680117, “Discovery of 3,3'-pyrrolidinyl-spirooxindoles as cardioprotectant prohibitin ligands” (Eur J Med Chem, 2020).
# Calls of active or inactive are those of the source. The calls are words filed in the database; no cut-off is given here.
# Assays:
# H9c2 [1] = experiment: Cardioprotective activity against rat H9c2 cells assessed as inhibition of doxorubicin-induced ROS production at 1 nM preincubated for 14 hrs followed by loading with DCFDA dye for 45 mins and later exposed to doxorubicin for 3 hrs by DCF-DA probe based fluorescence assay (reference value: 0%); type: functional; settings: H9c2, 17.75 h, time 1065 min
# H9c2 [2] = experiment: Cardioprotective activity against rat H9c2 cells assessed as inhibition of doxorubicin-induced cytotoxicity by measuring increase in cell suvival at 1 nM preincubated for 10 hrs followed by doxorubicin treatment and measured after 14 hrs by cQuant based analysis (reference value: 0%); type: functional; set-up: scale not given: the % may be the effect or the level left; settings: time 24 hrs
# H9c2 [3] = experiment: Cardioprotective activity against rat H9c2 cells assessed as inhibition of doxorubicin-induced ROS production at 0.3 nM preincubated for 14 hrs followed by loading with DCFDA dye for 45 mins and later exposed to doxorubicin for 3 hrs by DCF-DA probe based fluorescence assay (reference value: 0%); type: functional; settings: H9c2, 17.75 h, time 1065 min
# H9c2 [4] = experiment: Cardioprotective activity against rat H9c2 cells assessed as inhibition of doxorubicin-induced cytotoxicity by measuring increase in cell suvival at 0.3 nM preincubated for 10 hrs followed by doxorubicin treatment and measured after 14 hrs by cQuant based analysis (reference value: 0%); type: functional; set-up: scale not given: the % may be the effect or the level left; settings: time 24 hrs
# H9c2 [5] = experiment: Binding affinity to PHB2 in rat H9c2 cells incubated for overnight by AffiGel 10 beads pull down based western blot analysis; type: cell-based
# H9c2 [6] = experiment: Binding affinity to PHB1 in rat H9c2 cells incubated for overnight by AffiGel 10 beads pull down based western blot analysis; type: cell-based
# MCF7 = experiment: Cytotoxicity against human MCF7 cells; type: functional, cell-based
# H9c2 [7] = experiment: Cardioprotective activity against rat H9c2 cells assessed as inhibition of doxorubicin-induced cytotoxicity at 10 to 30 nM preincubated for 10 hrs followed by doxorubicin treatment and measured after 14 hrs by cQuant based analysis; type: functional, cell-based; settings: dose 10-30 nM, time 24.0 hrs
# H9c2 [8] = experiment: Cardioprotective activity against rat H9c2 cells assessed as inhibition of doxorubicin-induced ROS production at 10 to 30 nM preincubated for 14 hrs followed by loading with DCFDA dye for 45 mins and later exposed to doxorubicin for 3 hrs by DCF-DA probe based fluorescence assay; type: functional, cell-based; settings: dose 10-30 nM, time 1065.0 min
# H9c2 [9] = experiment: Binding affinity to PHB1/2 in rat H9c2 cells assessed as induction of STAT3 phosphorylation at 10 nM incubated for 10 to 40 mins by western blot analysis; type: cell-based; settings: time 10-40 min
SMILES,inhibition at 0.001 µM (H9c2 [1]) [%],Activity (H9c2 [2]) [%],inhibition at 0.0003 µM (H9c2 [3]) [%],Activity (H9c2 [4]) [%],Activity (H9c2 [5]),Activity (H9c2 [6]),EC50 (MCF7) [µM],Activity (H9c2 [7]),Activity (H9c2 [8]),Activity (H9c2 [9])
O=C1N[C@@H](c2ccccc2)[C@]2(C(=O)Nc3ccccc32)[C@H]1O,21.9,5.8,6.25,3,–,–,–,–,–,–
O=C(CCC(=O)ON1C(=O)CCC1=O)NCCNC(=O)CNCCOCCOCCOCCN1CCC2(C(=O)Nc3ccccc32)C1c1ccccc1 (stereo not given),–,–,–,–,Active,Active,–,–,–,–
CN1CC[C@@]2(C(=O)Nc3ccccc32)[C@@H]1c1ccccc1,15.6,7.6,9.4,5.4,–,–,–,–,–,–
CN1C(=O)[C@@]2(c3ccccc31)[C@H](c1ccccc1)N(C)C(=O)[C@@H]2O,2.1,2.9,3.2,1.9,–,–,–,–,–,–
COC(=O)[C@H]1C[C@]2(C(=O)Nc3ccccc32)[C@@H](c2ccccc2)N1,9.4,6.4,3.1,4,–,–,–,–,–,–
O=C1Nc2ccccc2[C@]12CCN(C1CCCC1)[C@H]2c1ccccc1,12.5,0.2,0,2.6,–,–,–,–,–,–
O=C1Nc2ccccc2[C@]12CCNC2c1ccccc1 (stereo not given in full),18.8,11.3,12.5,7.7,–,–,3.5,–,–,–
C=CCN1CC[C@@]2(C(=O)Nc3ccccc32)[C@@H]1c1ccccc1,20.6,11.6,12.7,4.6,–,–,–,Active,Active,–
COC(=O)[C@H]1C[C@@]2(C(=O)Nc3ccccc32)[C@H](c2ccccc2)N1,2.7,7.1,2.9,2.9,–,–,–,–,–,–
O=C(CCC(=O)ON1C(=O)CCC1=O)NCCNC(=O)CNCCOCCOCCOCCN1C(=O)C2(CCNC2c2ccccc2)c2ccccc21 (stereo not given),–,–,–,–,Active,Active,–,–,–,–
CCCCN1CC[C@@]2(C(=O)Nc3ccccc32)[C@@H]1c1ccccc1,12.5,5.7,6.2,0.9,–,–,–,–,–,–
O=C(CN1CC[C@@]2(C(=O)Nc3ccccc32)[C@@H]1c1ccccc1)N1CCOCC1,6.2,0.3,0,0.3,–,–,–,–,–,–
CCCN1CC[C@@]2(C(=O)Nc3ccccc32)[C@@H]1c1ccccc1,6.2,0.8,3.1,1.3,–,–,–,–,–,–
CC(C)N1CC[C@@]2(C(=O)Nc3ccccc32)[C@@H]1c1ccccc1,20.5,10.7,14.3,6.7,–,–,–,Active,Active,Active
Cc1ccc2c(c1)NC(=O)C21CCNC1c1ccccc1 (stereo not given),3.2,2.6,0,0.3,–,–,–,–,–,–
CCN1CC[C@@]2(C(=O)Nc3ccccc32)[C@@H]1c1ccccc1,12.5,7.4,9.4,6,–,–,–,–,–,–
CN(C)C(=O)CN1CC[C@@]2(C(=O)Nc3ccccc32)[C@@H]1c1ccccc1,9.4,0.2,0,1.4,–,–,–,–,–,–
COc1cc(OC)c2c(c1)O[C@@]1(c3ccc(Br)cc3)[C@H](c3ccccc3)C[C@@H](O)[C@@]21O,15.9,9.7,9.5,3.5,–,–,–,Active,Active,–
O=C1Nc2cc(Br)ccc2C12CCNC2c1ccccc1 (stereo not given),6.5,6.5,3.2,1.1,–,–,–,–,–,–
